In ChEMBL document CHEMBL5346927, “Discovery of a novel 1H-pyrazole- [3,4-b] pyridine-based lysine demethylase 5B inhibitor with potential anti-prostate cancer activity that perturbs the phosphoinositide 3-kinase/AKT pathway” (Eur J Med Chem, 2023):
Each block holds one compound with its values, some of them ahead of it. Calls of active or inactive are those of the source. No cut-off for these calls is given here.

How the values were obtained:
[1] = Toxicity in BALB/C nude mouse xenografted with human PC-3 cells assessed as heart damage at 25 mg/kg, IG administered for 25 days by H&E staining based analysis; type: organism-based; conditions: in vivo, po, 600 h, time 25 day
PC-3 [2] = test: Antitumor activity against human PC-3 cells xenografted in BALB/C nude mice assessed as decrease in tumor volume at 25 to 50 mg/kg, IG administered for 25 days; type: functional, organism-based; conditions: dose 25-50 mg/kg, time 25.0 day
[3] = Toxicity in BALB/C nude mouse xenografted with human PC-3 cells assessed as effect on body weight at 25 mg/kg, IG administered for 25 days; type: organism-based; conditions: in vivo, po, 600 h, time 25 day
[4] = Toxicity in BALB/C nude mouse xenografted with human PC-3 cells assessed as irregular fissures at 25 mg/kg, IG administered for 25 days by H&E staining based analysis; type: organism-based; conditions: in vivo, po, 600 h, time 25 day
PC-3 [5] = test: Antitumor activity against human PC-3 cells xenografted in BALB/C nude mice assessed as decrease in tumor weight at 25 mg/kg, IG administered for 25 days; type: functional, organism-based; conditions: time 25.0 day
[6] = Toxicity in BALB/C nude mouse xenografted with human PC-3 cells assessed as indistinct prostate tube wall at 25 mg/kg, IG administered for 25 days by H&E staining based analysis; type: organism-based; conditions: in vivo, po, 600 h, time 25 day
[7] = Toxicity in BALB/C nude mouse xenografted with human PC-3 cells assessed as spleen damage at 25 mg/kg, IG administered for 25 days by H&E staining based analysis; type: organism-based; conditions: in vivo, po, 600 h, time 25 day
[8] = Toxicity in BALB/C nude mouse xenografted with human PC-3 cells assessed as liver damage at 25 mg/kg, IG administered for 25 days by H&E staining based analysis; type: organism-based; conditions: in vivo, po, 600 h, time 25 day
[9] = Toxicity in BALB/C nude mouse xenografted with human PC-3 cells assessed as reduction in prostate gland cells at 25 mg/kg, IG administered for 25 days by H&E staining based analysis; type: organism-based; conditions: in vivo, po, 600 h, time 25 day
[10] = Toxicity in BALB/C nude mouse xenografted with human PC-3 cells assessed as decrease in cell density at 25 mg/kg, IG administered for 25 days by H&E staining based analysis; type: organism-based; conditions: in vivo, po, 600 h, time 25 day
[11] = molecular target: Lysine-specific histone demethylase 1A (Homo sapiens) (UniProt O60341); test: Inhibition of LSD1 (unknown origin) at 10 uM relative to control
[12] = molecular target: T1, Lysine-specific demethylase 5B (Homo sapiens, UniProt Q9UGL1); test: Inhibition of KDM5B (unknown origin) at 10 uM relative to control
[13] = molecular target: T2, Protein deacetylase HDAC6 (Homo sapiens) (UniProt Q9UBN7); test: Inhibition of HDAC6 (unknown origin) at 10 uM relative to control
T2 sequence (whole entry): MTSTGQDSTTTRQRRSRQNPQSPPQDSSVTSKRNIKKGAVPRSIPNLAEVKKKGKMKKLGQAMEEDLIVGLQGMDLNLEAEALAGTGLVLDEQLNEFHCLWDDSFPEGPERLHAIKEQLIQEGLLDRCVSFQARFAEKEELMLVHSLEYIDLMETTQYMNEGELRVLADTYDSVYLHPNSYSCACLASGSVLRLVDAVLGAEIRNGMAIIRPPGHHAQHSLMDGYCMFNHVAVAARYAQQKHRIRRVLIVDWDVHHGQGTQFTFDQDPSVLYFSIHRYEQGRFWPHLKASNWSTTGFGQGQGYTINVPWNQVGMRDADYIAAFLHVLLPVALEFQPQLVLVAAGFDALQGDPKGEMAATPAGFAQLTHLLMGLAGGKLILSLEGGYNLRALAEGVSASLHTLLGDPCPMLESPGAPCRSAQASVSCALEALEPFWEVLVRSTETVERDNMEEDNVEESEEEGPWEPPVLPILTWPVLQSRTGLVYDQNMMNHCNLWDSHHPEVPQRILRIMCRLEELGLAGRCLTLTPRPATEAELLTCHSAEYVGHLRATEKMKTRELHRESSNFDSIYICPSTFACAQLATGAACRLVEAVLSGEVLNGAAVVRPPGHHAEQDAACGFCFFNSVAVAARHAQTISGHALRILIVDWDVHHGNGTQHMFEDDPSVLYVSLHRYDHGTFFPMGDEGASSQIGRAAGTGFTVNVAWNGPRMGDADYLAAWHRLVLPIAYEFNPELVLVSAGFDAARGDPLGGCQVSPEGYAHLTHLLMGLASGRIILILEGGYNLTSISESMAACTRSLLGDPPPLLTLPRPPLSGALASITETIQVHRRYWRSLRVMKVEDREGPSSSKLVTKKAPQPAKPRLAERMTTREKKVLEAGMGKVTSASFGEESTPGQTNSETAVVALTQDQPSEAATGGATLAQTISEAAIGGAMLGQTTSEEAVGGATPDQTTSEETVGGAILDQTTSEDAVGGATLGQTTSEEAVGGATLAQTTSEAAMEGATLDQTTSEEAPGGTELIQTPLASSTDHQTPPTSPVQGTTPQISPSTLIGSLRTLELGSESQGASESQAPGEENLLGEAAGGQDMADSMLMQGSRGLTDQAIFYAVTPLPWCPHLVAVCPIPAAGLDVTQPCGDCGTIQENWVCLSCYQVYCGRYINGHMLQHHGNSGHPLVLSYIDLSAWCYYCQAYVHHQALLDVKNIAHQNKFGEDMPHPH

[14] = molecular target: Ubiquitin carboxyl-terminal hydrolase 7 (Homo sapiens) (UniProt Q93009); test: Inhibition of USP7 (unknown origin) at 10 uM relative to control
[15] = molecular target: S-phase kinase-associated protein 2 (Homo sapiens) (UniProt Q13309); test: Inhibition of SKP2 (unknown origin) at 10 uM relative to control
[16] = molecular target: Bromodomain-containing protein 4 (Homo sapiens) (UniProt O60885); test: Inhibition of BRD4 (unknown origin) at 10 uM relative to control
PC-3 [17] = test: Inhibition of PI3K/AKT pathway in human PC-3 cells assessed as decrease in P110alpha level at 20 uM by Western blot analysis; type: cell-based
DU-145 = test: Antiproliferative activity against human DU-145 cells assessed as inhibition of cell proliferation incubated for 72 hrs by MTT assay; type: functional, cell-based; conditions: DU-145, 72 h
MCF7 = test: Antitumor activity against human MCF7 cells assessed as inhibition of cell proliferation incubated for 72 hrs by MTT assay; type: functional, cell-based; conditions: MCF7, 72 h
[18] = molecular target: T1, Lysine-specific demethylase 5B; test: Inhibition of KDM5B (unknown origin)
MGC-803 = test: Antitumor activity against human MGC-803 cells assessed as inhibition of cell proliferation incubated for 72 hrs by MTT assay; type: functional, cell-based; conditions: MGC-803, 72 h
HepG2 = test: Antitumor activity against human HepG2 cells assessed as inhibition of cell proliferation incubated for 72 hrs by MTT assay; type: functional, cell-based; conditions: HepG2, 72 h
PC-3 [19] = test: Inhibition of PI3K/AKT pathway in human PC-3 cells assessed as decrease in P85 level at 20 uM by Western blot analysis; type: cell-based
PC-3 [20] = test: Inhibition of PI3K/AKT pathway in human PC-3 cells assessed as decrease in AKT phosphorylation at Thr308 residue at 20 uM by Western blot analysis; type: cell-based
PC-3 [21] = test: Antitumor activity against human PC-3 cells assessed as inhibition of cell proliferation incubated for 72 hrs by MTT assay; type: functional, cell-based; conditions: PC-3, 72 h
LNCaP = test: Antiproliferative activity against human LNCaP cells assessed as inhibition of cell proliferation incubated for 72 hrs by MTT assay; type: functional, cell-based
PC-3 [22] = test: Inhibition of PI3K/AKT pathway in human PC-3 cells assessed as decrease in AKT phosphorylation at Ser473 residue at 20 uM by Western blot analysis; type: cell-based

T1 sequence (Q9UGL1 whole entry): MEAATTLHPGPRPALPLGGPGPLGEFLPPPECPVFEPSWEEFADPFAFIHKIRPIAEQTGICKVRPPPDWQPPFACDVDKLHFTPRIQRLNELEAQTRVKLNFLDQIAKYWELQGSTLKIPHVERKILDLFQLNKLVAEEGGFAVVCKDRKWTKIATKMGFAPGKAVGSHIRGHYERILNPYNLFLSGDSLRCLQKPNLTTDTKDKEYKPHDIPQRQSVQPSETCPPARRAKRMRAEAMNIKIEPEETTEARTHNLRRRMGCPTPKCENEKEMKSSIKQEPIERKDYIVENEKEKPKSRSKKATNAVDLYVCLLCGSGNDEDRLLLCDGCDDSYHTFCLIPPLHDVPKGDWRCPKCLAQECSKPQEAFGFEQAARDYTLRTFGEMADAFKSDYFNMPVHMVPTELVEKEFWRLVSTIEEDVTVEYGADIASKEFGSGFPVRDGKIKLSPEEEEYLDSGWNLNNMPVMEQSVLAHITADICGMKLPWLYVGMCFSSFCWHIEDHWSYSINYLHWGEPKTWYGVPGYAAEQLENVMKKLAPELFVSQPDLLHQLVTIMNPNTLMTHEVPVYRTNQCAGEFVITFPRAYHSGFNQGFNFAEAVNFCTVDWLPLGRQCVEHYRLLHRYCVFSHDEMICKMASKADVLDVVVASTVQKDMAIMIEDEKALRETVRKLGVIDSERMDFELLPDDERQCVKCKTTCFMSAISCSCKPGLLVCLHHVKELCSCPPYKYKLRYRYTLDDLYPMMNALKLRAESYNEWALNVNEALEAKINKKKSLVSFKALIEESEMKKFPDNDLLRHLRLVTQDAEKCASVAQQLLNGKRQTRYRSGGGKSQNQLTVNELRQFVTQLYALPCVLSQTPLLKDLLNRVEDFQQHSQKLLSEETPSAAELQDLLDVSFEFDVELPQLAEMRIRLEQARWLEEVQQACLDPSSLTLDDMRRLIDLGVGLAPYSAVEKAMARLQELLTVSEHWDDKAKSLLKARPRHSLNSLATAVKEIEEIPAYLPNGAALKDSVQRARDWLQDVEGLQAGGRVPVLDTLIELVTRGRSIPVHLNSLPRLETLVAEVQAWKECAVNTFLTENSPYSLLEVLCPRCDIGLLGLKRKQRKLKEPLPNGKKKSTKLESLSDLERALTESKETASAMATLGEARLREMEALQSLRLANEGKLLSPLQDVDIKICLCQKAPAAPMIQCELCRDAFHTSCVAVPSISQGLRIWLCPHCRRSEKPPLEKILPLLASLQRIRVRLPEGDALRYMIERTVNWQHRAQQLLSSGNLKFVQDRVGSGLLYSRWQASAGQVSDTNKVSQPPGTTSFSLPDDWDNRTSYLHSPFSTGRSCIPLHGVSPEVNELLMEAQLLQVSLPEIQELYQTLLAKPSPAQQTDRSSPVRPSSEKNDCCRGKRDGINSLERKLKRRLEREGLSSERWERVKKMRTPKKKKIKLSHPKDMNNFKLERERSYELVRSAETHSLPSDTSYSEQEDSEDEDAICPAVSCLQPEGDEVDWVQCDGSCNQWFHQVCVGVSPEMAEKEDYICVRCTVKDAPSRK
Sequence of S-phase kinase-associated protein 2 (Homo sapiens) (Q13309 whole entry): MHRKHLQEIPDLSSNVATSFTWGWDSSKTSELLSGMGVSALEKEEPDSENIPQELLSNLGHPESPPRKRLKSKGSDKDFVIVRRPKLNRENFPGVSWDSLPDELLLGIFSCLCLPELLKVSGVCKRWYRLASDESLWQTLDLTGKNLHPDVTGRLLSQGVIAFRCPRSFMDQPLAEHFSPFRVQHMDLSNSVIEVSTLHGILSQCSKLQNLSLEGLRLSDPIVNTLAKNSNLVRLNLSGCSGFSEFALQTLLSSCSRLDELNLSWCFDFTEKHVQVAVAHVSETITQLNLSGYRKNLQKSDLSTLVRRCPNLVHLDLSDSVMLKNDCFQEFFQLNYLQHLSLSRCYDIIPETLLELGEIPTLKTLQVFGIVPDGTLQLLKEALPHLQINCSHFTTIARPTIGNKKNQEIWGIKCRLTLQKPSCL
Sequence of Ubiquitin carboxyl-terminal hydrolase 7 (Homo sapiens) (Q93009 whole entry, looked up): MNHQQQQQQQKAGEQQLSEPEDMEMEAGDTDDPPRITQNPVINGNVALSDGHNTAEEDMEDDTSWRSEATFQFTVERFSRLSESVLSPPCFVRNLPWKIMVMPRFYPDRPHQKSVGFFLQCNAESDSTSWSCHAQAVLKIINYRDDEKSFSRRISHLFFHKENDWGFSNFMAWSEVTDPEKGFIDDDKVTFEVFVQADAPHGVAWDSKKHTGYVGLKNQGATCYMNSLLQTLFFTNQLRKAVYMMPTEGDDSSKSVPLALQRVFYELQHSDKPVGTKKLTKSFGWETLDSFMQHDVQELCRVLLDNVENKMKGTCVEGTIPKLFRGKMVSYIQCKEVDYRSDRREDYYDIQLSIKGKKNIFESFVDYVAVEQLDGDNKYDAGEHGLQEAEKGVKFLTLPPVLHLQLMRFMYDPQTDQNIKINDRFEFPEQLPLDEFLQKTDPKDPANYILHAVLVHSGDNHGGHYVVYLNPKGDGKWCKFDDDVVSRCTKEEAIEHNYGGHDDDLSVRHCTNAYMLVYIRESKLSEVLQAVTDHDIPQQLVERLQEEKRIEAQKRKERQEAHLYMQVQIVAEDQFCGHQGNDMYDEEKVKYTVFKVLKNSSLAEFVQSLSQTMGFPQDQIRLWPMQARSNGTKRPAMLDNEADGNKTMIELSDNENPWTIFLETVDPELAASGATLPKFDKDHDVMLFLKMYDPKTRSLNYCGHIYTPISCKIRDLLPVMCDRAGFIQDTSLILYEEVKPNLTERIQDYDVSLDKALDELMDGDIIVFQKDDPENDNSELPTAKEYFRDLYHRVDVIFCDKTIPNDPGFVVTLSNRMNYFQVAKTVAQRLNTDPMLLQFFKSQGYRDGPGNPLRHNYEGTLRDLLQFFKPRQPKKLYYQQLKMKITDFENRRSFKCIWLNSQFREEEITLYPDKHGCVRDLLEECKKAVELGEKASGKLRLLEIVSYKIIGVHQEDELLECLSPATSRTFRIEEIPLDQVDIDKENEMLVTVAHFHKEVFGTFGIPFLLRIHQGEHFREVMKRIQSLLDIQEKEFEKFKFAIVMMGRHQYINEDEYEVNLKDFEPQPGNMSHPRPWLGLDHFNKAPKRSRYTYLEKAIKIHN

Structure (SMILES): COc1cccc2c1C(=O)c1c(O)c3c(c(O)c1C2=O)C[C@@](O)(C(=O)CO)C[C@@H]3O[C@H]1C[C@H](N)[C@H](O)[C@H](C)O1 [DOXORUBICIN]
Activity [1]: Toxic
Activity (PC-3 [2]): Active
Activity [3]: Toxic
Activity [4]: Toxic
Activity (PC-3 [5]): Active
Activity [6]: Toxic
Activity [7]: Toxic
Activity [8]: Toxic
Activity [9]: Toxic
Activity [10]: Toxic

inhibition [11]: 31%
inhibition [12]: 56%
inhibition [13]: 27%
inhibition [14]: 16%
inhibition [15]: 11%
inhibition [16]: 9%
Structure (SMILES): CC(C)n1ncc2c(C(=O)NCc3cn(Cc4ccccc4)nn3)cccc21

IC50 (DU-145): 35.9 µM
IC50 (MCF7): 35.4 µM
IC50 [18]: 0.011 µM
IC50 (MGC-803): 33.7 µM
IC50 (HepG2): 42.6 µM
IC50 (PC-3 [21]): 26.7 µM
IC50 (LNCaP): 29.6 µM
Structure (SMILES): CC(C)c1c(-c2ccccc2)[nH]c2c(C#N)cnn2c1=O
inhibition (PC-3 [17]): Active
inhibition (PC-3 [19]): Active
inhibition (PC-3 [20]): Active
inhibition (PC-3 [22]): Active
